Holding throughout (experiment): SILAC proteomics / in-gel fluorescence, competition of probe 13-t labeling by 3a
The target of test [1] is T1, proteins of HEK293T cells transiently overexpressing caspase-6 (Homo sapiens, UniProt O00410).
T1 sequence (O00410 1-1097): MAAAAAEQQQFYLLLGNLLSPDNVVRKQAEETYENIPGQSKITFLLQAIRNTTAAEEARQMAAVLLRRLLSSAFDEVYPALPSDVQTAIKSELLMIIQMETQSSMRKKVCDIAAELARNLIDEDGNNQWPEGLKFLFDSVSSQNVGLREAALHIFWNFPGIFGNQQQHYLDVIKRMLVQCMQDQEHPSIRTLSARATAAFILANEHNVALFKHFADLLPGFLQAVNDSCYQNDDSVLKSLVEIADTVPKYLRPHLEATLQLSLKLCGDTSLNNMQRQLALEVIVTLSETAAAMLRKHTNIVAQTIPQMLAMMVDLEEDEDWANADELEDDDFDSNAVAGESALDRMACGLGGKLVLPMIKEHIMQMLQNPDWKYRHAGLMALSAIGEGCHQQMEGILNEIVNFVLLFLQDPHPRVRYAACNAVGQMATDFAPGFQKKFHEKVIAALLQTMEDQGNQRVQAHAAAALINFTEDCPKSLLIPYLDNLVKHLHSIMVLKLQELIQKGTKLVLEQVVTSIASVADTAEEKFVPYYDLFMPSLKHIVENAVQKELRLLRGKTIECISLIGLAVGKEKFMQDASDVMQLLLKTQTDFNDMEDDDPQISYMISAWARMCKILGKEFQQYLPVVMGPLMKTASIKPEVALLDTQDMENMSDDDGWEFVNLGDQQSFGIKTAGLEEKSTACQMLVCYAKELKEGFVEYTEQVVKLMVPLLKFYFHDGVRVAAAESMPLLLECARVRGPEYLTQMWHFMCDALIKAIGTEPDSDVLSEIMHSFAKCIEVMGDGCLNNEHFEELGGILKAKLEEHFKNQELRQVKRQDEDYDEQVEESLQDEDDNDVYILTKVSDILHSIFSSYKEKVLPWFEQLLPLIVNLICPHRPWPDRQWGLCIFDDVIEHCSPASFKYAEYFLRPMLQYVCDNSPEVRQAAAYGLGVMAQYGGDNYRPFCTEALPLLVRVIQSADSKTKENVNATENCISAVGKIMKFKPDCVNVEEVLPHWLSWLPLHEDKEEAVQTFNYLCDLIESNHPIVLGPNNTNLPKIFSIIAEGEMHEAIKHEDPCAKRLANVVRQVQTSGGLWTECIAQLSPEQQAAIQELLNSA

For test [2], the target named is T2, proteins of HEK293T cells transiently overexpressing caspase-6 (Homo sapiens, UniProt P08243).
T2 sequence (P08243 1-561): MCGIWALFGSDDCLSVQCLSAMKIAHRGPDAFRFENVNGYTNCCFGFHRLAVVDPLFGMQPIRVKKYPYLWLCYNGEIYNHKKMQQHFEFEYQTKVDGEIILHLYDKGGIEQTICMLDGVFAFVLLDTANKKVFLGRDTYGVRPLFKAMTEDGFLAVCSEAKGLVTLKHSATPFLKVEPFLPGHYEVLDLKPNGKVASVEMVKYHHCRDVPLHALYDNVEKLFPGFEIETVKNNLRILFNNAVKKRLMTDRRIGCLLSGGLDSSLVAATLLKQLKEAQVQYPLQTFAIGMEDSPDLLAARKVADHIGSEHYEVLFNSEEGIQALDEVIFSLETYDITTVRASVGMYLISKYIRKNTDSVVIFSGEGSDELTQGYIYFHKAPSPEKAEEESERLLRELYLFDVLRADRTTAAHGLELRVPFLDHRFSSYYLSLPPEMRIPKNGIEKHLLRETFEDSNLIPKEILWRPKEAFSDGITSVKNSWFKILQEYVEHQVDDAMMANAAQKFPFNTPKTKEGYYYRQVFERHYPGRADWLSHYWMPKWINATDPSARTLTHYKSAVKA

Test [3] addresses proteins of HEK293T cells transiently overexpressing caspase-6 (Homo sapiens, UniProt P33992). The note with it: Comp; protein MCM5 P33992.
The target in test [4] is proteins of HEK293T cells transiently overexpressing caspase-6 (Homo sapiens, UniProt P57088). The note with it: Comp; protein TMEM33 P57088.
proteins of HEK293T cells transiently overexpressing caspase-6 (Homo sapiens, UniProt P57088), sequence (P57088 whole entry): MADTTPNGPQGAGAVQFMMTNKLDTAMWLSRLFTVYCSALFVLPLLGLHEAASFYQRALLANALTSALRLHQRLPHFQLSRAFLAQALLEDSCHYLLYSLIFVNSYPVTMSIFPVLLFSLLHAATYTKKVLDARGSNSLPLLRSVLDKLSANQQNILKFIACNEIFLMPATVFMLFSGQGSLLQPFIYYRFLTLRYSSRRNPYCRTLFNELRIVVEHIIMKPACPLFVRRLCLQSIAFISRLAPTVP
For test [5], the target named is proteins of HEK293T cells transiently overexpressing caspase-6 (Homo sapiens, UniProt P62753). As to conditions: Comp; protein RPS6 P62753.
Test [6] deals with proteins of HEK293T cells transiently overexpressing caspase-6 (Homo sapiens, UniProt Q07666). The note with it: Comp; protein KHDRBS1 Q07666.
proteins of HEK293T cells transiently overexpressing caspase-6 (Homo sapiens, UniProt Q07666), sequence (Q07666 whole entry): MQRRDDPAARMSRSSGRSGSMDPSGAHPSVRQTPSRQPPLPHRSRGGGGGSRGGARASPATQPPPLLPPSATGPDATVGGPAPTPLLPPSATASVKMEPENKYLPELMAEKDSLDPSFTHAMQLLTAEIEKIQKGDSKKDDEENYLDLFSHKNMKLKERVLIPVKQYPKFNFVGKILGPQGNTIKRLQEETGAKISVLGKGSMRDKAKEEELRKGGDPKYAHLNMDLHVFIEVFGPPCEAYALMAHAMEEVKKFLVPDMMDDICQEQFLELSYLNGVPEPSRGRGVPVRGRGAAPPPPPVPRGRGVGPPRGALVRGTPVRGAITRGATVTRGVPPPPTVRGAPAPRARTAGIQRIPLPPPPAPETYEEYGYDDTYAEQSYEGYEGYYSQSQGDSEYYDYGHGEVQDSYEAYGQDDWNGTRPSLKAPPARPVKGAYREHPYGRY
Test [7] addresses proteins of HEK293T cells transiently overexpressing caspase-6 (Homo sapiens, UniProt Q13151). The note with it: Comp; protein HNRNPA0 Q13151.
In test [8] the target is proteins of HEK293T cells transiently overexpressing caspase-6 (Homo sapiens, UniProt Q9P258). The note with it: Comp; protein RCC2 Q9P258.
proteins of HEK293T cells transiently overexpressing caspase-6 (Homo sapiens, UniProt Q9P258), sequence (Q9P258 whole entry): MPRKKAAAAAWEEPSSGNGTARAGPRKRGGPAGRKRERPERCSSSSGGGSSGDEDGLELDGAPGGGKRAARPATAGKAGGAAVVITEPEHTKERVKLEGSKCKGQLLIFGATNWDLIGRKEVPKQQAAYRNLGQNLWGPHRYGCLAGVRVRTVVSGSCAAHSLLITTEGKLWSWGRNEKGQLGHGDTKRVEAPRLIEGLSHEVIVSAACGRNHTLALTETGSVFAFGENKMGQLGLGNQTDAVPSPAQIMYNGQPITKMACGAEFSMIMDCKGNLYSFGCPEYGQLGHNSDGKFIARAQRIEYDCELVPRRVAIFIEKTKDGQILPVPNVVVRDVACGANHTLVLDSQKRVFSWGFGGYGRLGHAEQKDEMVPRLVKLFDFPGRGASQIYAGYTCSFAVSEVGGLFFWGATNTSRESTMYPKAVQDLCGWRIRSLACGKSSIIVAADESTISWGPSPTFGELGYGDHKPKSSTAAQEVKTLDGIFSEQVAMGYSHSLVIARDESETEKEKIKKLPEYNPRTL
The mark [9] stands for this setting: protein IPO5 (O00410), Exp Comp, analysis C6, p 0.0039, 9 peptides.
[10] abbreviates: protein ASNS (P08243), Exp Comp, analysis C6, p 0.1250, 4 peptides.

The record followed here is PMC10176470, “Engaging a Non-catalytic Cysteine Residue Drives Potent and Selective Inhibition of Caspase-6” (Journal of the American Chemical Society, 2023).

Each structure is given as a SMILES string.

proteins of HEK293T cells transiently overexpressing caspase-6 (Homo sapiens, UniProt P33992), sequence (P33992 whole entry): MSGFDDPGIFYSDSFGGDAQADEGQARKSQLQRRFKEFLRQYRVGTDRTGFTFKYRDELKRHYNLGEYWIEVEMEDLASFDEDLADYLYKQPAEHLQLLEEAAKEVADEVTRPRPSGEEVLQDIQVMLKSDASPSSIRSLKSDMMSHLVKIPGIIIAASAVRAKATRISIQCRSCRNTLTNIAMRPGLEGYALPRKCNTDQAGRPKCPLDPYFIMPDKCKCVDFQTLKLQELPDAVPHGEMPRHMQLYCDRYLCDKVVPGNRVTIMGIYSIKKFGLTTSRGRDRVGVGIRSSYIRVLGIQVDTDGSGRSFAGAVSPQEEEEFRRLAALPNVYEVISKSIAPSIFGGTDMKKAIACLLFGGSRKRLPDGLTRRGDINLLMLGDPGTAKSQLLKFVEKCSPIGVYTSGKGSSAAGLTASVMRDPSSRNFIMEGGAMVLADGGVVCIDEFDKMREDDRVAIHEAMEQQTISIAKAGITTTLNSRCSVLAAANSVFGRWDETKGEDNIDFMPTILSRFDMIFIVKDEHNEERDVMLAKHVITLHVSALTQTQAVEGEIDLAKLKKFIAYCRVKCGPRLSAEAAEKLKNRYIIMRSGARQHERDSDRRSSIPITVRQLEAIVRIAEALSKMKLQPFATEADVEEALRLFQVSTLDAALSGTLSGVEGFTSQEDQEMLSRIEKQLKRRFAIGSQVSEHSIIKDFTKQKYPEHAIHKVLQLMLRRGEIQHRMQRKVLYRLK
proteins of HEK293T cells transiently overexpressing caspase-6 (Homo sapiens, UniProt Q13151), sequence (Q13151 whole entry): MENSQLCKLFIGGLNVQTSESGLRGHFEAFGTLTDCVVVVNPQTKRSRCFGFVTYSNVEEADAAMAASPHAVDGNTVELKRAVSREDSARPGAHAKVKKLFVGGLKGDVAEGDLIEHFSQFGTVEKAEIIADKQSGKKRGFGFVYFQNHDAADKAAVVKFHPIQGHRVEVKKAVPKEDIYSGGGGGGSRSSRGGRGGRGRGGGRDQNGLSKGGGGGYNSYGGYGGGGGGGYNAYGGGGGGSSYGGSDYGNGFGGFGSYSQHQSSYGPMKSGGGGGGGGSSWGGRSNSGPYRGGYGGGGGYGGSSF

In the case of `C=CS(=O)(=O)N1C[C@H](C(=O)Nc2ccc(OC(F)(F)F)cc2)C[C@@H](c2ccccc2)C1` [3a], the enrich.exp.med in test [1] (Comp, protein IPO5 O00410) was determined as 1; in test [2] (Comp, protein ASNS P08243), 1.12; in test [3] it was 0.8256; in test [4] it was 0.7492; in test [5] it was 0.7055; in test [6], 0.748. Moreover, the enrich.exp.med was determined as 0.7909 in test [7] and 0.5769 in test [8]. Further, the enrich.exp.med.lin was 2 in test [1] (setting [9]) and 2.174 in test [2] (setting [10]). Further, the results for the enrich.exp.med.log2 in test [1] (setting [9]) and in test [2] (setting [10]) were 1 and 1.12, respectively.
